Patent US20210277009A1, “PRMT5 INHIBITORS” (Merck Sharp & Dohme Corp., priority 2018, published 2021)
Read-outs that look alike come from different tables or passages of the source.

Experiments:
[1] = biological target: T1, PRMT5-MEP50 enzyme complex (Homo sapiens, UniProt O14744); experiment: PRMT5-MEP50 Enzyme Methylation Assay; type: biochemical
T1 construct: 1.25 nM of Full-length (FL)-PRMT5-MEP50 enzyme complex; made in house; host or cells: baculovirus-transfected Sf21 cells
Method: PRMT5-MEP50 biochemical assay is a direct measurement of the methylation activity of the enzyme complex on a short peptide substrate derived from the N-terminus of H4 histone. Methylation experiment is performed with recombinant PRMT5-MEP50 protein complex. The assessment of inhibitory effect of small molecules is measured by tire effectiveness of the compounds to inhibit tins reaction (EC50).
In this assay, the potency (EC50) of each compound was determined from a twenty-point (1:2 serial dilution; top compound concentration of 100000 nM) titration curve using the following outlined procedure. To each well of a white ProxiPlus 384 well-plate, 100 nL of compound (1% DMSO in final assay volume of 10 μL) was dispensed, followed by the addition of 8 μL of 1× assay buffer (50 mM Bicine pH 8.0, 1 mM DTT, 0.004% Tween20, 0.01% BSA) containing 1.25 nM of Full-length (FL)-PRMT5-MEP50 enzyme complex (recombinant proteins from baculovirus-transfected Sf21 cells: FL-PRMT5; MW=[…] and FL-MEP50; MW=38614) and 1 μL of 150 μM S-(5′-Adenosyl)-L-Methionine Chloride (SAM). Plates were sealed and placed in a 37° C. humidified chamber for a 60 minutes pre-incubation with compound. Subsequently, each reaction was initiated by the addition of 1 μL 1× assay buffer containing 750 nM biotinylated H4R3(Mel) peptide. The final reaction in each well of 10 μL consists of 1.0 nM PRMT5-MEP50, 75 nM biotinylated-peptide, and […] SAM. Methylation reactions were allowed to proceed for 150 minutes in a sealed plate at 37° C. Reactions were immediately quenched by the addition of 1 μL of 5% formic acid. Plates were then frozen and shipped to SAMDITM Tech Inc. to determine the percent conversion from H4R3(Mel) to H4R3(Me2). Dose-response curves were generated by plotting percent effect (% product conversion; Y-axis) vs. Log 10 compound concentrations (X-axis). EC50 values were determined by non-linear regression according to models for either sigmoidal (4 parameters) or biphasic (7 parameters) dose-response curves.

[2] = test system: symmetric dimethylation of arginine (SDMA) of PRMT5 substrates in MCF-7 cells; experiment: PRMT5 Cell Target Engagement (TE) Assay; type: cell-based; details: treated for 3 days, nuclear SDMA by high content imaging, top concentration 10000 nM
Source text: The PRMT5 TE assay is a biomarker assay for identifying compounds that inhibit symmetric dimethylation of arginine (SDMA) of PRMT5 substrates. The following substrates have been reported for PRMT5: histone H2A and H4 R3, Histone H3 R2, Histone H3 R8, spliceosome Sm proteins, ribosomal protein RPS10, p53, FEN1, nudeoplasmin, nucleolin, EGFR and EBNA. The assay will focus on detecting symmetrically dimethylated nuclear proteins using high content imaging technology. Detection of the expression of symmetrically dimethylated nuclear proteins is through a mixture of primary rabbit monoclonal antibodies to SDMA (CST 13222), which in turn recognized by an Alexafluor 488 dye-conjugated anti-rabbit IgG secondary antibody. The IN Cell Analyzer 2200 or Opera-Phenix measures nuclear Alexafluor 488 fluorescent dye intensity that is directly related to the level of expression of symmetrically dimethylated nuclear proteins at the single cell level. Nuclear AF488 dye intensities are compared to the mean value for DMSO treated cells (MIN) to report percent of inhibition for each compound-treated well.
In this assay, the cell potency (EC50) of each compound was determined from a ten point (1:3 serial dilution; top compound concentration of 10000 nM) titration curve using the following outlined procedure. Each well of a BD falcon collagen coated black/clear bottom 384-well plate was seeded with 4000 MCF-7 cells in 30 μl media and allowed to attach for 5 h. Media is ATCC-formulated Eagle's Minimum Essential Medium, Catalog No. 30-2003. To make the complete growth medium, the following components were added to the base medium: 0.01 mg/ml human recombinant insulin; fetal bovine serum to a final concentration of 10%. Additional 30 μl of media containing 2× compounds were added to each well. Cells were treated for 3 days in 37° C. CO2 incubator. On day 3, cells were fixed with Cytofix, permeablized with 0.4% Triton-X-100/Cytofix, and washed with D-PBS without Ca/Mg. Cells were blocked with Licor Odessey blocking reagent for 1 h at room temperature, followed by incubation with anti-SDMA (1:1000) antibody at 4° C. overnight. 1° antibody was removed, followed by three washings with DPBS without Ca/Mg and 0.05% Tween20. Hoechst (5 μg/ml), Cell Mask deep stain (1:2000) and Alexa488-conjugated goat anti-rabbit IgG (2 μg/mL) was added for 1 hour at room temperature. A final washing step (three washes) was performed before sealing plate for imaging on In Cell Analyzer 2200 or Opera-Phenix. Images from analyzer were uploaded to Columbus (at WP or BOS) for image analysis. IC50 values were determined by 4 parameters robust fit of percent fluorescence units vs. (Logic) compound concentrations.

[3] = single EC50 from 4 parameters single site sigmoidal model, or first EC50 of 7 parameters biphasic model, 1.0 nM PRMT5-MEP50, H4R3(Me1) peptide, SAM, read-out: Enzyme Methylation Assay (EC50 or EC50_1)
[4] = second EC50 of 7 parameters biphasic model, read-out: Enzyme Methylation Assay (EC50_2)

T1 sequence (O14744 whole entry): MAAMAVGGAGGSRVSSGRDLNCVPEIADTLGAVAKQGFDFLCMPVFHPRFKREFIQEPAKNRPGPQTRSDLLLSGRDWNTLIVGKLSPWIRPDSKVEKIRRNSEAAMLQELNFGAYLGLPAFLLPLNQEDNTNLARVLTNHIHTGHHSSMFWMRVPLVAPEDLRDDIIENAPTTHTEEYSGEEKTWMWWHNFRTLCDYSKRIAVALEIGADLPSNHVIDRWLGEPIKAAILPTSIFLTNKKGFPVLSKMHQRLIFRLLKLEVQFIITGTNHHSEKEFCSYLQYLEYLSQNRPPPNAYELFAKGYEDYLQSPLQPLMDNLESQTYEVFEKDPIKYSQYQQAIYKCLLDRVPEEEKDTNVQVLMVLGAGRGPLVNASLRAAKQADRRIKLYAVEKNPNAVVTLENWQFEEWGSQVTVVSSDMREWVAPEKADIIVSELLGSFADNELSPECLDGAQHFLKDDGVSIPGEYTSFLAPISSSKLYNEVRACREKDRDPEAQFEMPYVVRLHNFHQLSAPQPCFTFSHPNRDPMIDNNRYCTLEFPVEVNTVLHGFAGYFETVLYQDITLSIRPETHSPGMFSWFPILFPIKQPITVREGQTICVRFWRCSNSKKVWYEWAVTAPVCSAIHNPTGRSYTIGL
T1 sequence (Q9BQA1 whole entry partner): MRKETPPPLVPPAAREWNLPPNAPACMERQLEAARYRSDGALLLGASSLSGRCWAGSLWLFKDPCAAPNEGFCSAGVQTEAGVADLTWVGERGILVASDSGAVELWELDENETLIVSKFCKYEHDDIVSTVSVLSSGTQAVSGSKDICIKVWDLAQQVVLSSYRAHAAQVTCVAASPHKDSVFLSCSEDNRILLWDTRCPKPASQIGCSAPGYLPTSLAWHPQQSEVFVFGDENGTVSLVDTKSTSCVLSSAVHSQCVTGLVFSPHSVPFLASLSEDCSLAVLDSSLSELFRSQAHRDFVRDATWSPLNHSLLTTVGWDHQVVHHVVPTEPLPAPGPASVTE

SMILES	EC50 [1, 3]	EC50 ([2]; Homo sapiens, MCF7, 72 h)	EC50 [1, 4]	EC50 [2]
COc1ncnc2c1ccn2[C@@H]1S[C@H](COc2ccc3ccc(N)nc3c2)[C@@H](O)[C@H]1O [Example 10, (2R,3S,4R,5R)-2-(((2-aminoquinolin-7-yl)oxy)methyl)-5-(4-methoxy-7H-pyrrolo[2,3-d]pyrimidin-7yl)tetrahydrothiophene-3,4-diol]	19.5 nM	6020 nM	16200 nM	
Nc1ncnc2c1ccn2[C@@H]1S[C@H](COc2ccc3ccc(NCC4CC4)nc3c2)[C@@H](O)[C@H]1O [Example 4, 7-(5-O-{2-[(cyclopropylmethyl)amino]quinolin-7-yl}-4-thio-beta-D-ribofuranosyl)-7H-pyrrolo[2,3-d]pyrimidin-4-amine]	1.2 nM	50.5 nM	569 nM	
Cc1ncnc2c1ccn2[C@@H]1SC(CCc2ccc3ccc(NCC(F)F)nc3c2)[C@@H](O)[C@H]1O (stereo in doubt) [Example 27, (2S,3S,4R,5R)-2-(2-{2-[(2,2-difluoroethyl)amino]quinolin-7-yl}ethyl)-5-(4-methyl-7H-pyrrolo[2,3-d]pyrimidin-7-yl)tetrahydrothiophene-3,4-diol]	47.7 nM			55 nM
C[C@]1(COc2ccc3cc(Br)c(N)nc3c2)S[C@@H](n2ccc3c(Cl)ncnc32)[C@H](O)[C@@H]1O [Example 6, (2R,3S,4R,5R)-2-(((2-amino-3-bromoquinolin-7-yl)oxy)methyl)-5-(4-chloro-7H-pyrrolo[2,3-d]pyrimidin-7-yl)-2-methyltetrahydrothiophene-3,4-diol]	9.8 nM	1130 nM		
Nc1nc2cc(CC[C@H]3S[C@@H](n4cc(F)c5c(N)ncnc54)[C@H](O)[C@@H]3O)ccc2cc1Br [Example 37, (2R,3S,4R,5R)-2-(2-(2-amino-3-bromoquinolin-7-yl)ethyl)-5-(4-amino-5-fluoro-7H-pyrrolo[2,3-d]pyrimidin-7-yl)tetrahydrothiophene-3,4-diol]	0.4 nM	9.5 nM	16.2 nM	
Cc1ncnc2c1ccn2[C@@H]1S[C@@H](CCc2ccc3cc4c(nc3c2)NC(C)C4)[C@@H](O)[C@H]1O (single isomer, unassigned) [Example 39, (2S,3S,4R,5R)-2-(2-((R or S)-2-methyl-2,3-dihydro-1H-pyrrolo[2,3-b]quinolin-7-yl)ethyl)-5-(4-methyl-7H-pyrrolo[2,3-d]pyrimidin-7-yl)tetrahydrothiophene-3,4-diol]	21.9 nM			2440 nM
Nc1ccc2ccc(OC[C@H]3S[C@@H](n4ccc5c(N)ncnc54)[C@H](O)[C@@H]3O)cc2n1 [Example 11, (2R,3R,4S,5R)-2-(4-amino-7H-pyrrolo[2,3-d]pyrimidin-7-yl)-5-(((2-aminoquinolin-7-yl)oxy)methyl)tetrahydrothiophene-3,4-diol]	0.7 nM	87.1 nM	55 nM	
Cc1cn([C@@H]2S[C@H](CCc3ccc4cc(Br)c(N)nc4c3)[C@@H](O)[C@H]2O)c2ncnc(N)c12 [Example 34, (2R,3S,4R,5R)-2-(2-(2-amino-3-bromoquinolin-7-yl)ethyl)-5-(4-amino-5-methyl-7H-pyrrolo[2,3-d]pyrimidin-7-yl)tetrahydrothiophene-3,4-diol]	0.5 nM	29.1 nM	151 nM	
Cc1ncnc2c1ccn2[C@@H]1S[C@@H](CCc2ccc3cc4c(nc3c2)NC(C)C4)[C@@H](O)[C@H]1O (single isomer, unassigned) [Example 40, (2S,3S,4R,5R)-2-(2-((S or R)-2-methyl-2,3-dihydro-1H-pyrrolo[2,3-b]quinolin-7-yl)ethyl)-5-(4-methyl-7H-pyrrolo[2,3-d]pyrimidin-7-yl)tetrahydrothiophene-3,4-diol]	57.9 nM			

Other lines, results leading:

EC50 [1, 3]	EC50 ([2]; Homo sapiens, MCF7, 72 h)	EC50 [1, 4]	EC50 [2]	SMILES
0.3 nM	3.2 nM			Nc1nc2cc(CC[C@@H]3S[C@@H](n4ccc5c(N)ncnc54)[C@H](O)[C@@H]3O)ccc2cc1Br [Example 13, (2S,3S,4R,5R)-2-(2-(2-amino-3-bromoquinolin-7-yl)ethyl)-5-(4-amino-7H-pyrrolo[2,3-d]pyrimidin-7-yl)tetrahydrothiophene-3,4-diol]
7.4 nM	≥ 10000 nM			Cc1ncnc2c1ccn2[C@@H]1S[C@@H](CCc2ccc3cc(C(F)(F)F)c(N)nc3c2)[C@@H](O)[C@H]1O [Example 21, (2S,3S,4R,5R)-2-{2-[2-amino-3-(trifluoromethyl)quinolin-7-yl]ethyl}-5-(4-methyl-7H-pyrrolo[2,3-d]pyrmidin-7-yl)tetrahydrothiophene-3,4-diol]
0.6 nM	0.9 nM			Cc1cc2ccc(CC[C@@H]3S[C@@H](n4ccc5c(C)ncnc54)[C@H](O)[C@@H]3O)cc2nc1N (single isomer, unassigned) [Example 29]
2.2 nM	5 nM			Cc1ncnc2c1ccn2[C@@H]1S[C@H](CCc2ccc3cc(Br)c(N)nc3c2)[C@@H](O)[C@H]1O [Example 18, (2R,3S,4R,5R)-2-(2-(2-amino-3-bromoquinolin-7-yl)ethyl)-5-(4-methyl-7H-pyrrolo[2,3-d]pyrimidin-7-yl)tetrahydrothiophene-3,4-diol]
1.2 nM	123 nM	661 nM		Cc1ncnc2c1ccn2[C@@H]1S[C@@H](CCc2ccc3cc(C(F)F)c(N)nc3c2)[C@@H](O)[C@H]1O [Example 41, (2S,3S,4R,5R)-2-(2-(2-amino-3-(difluoromethyl)quinolin-7-yl)ethyl)-5-(4-methyl-7H-pyrrolo[2,3-d]pyrimidin-7-yl)tetrahydrothiophene-3,4-diol]
0.4 nM	8.4 nM	50.1 nM		Cc1ncnc2c1ccn2[C@@H]1S[C@@H](CCc2ccc3cc(Br)c(N)nc3c2)[C@@H](O)[C@H]1O [Example 19]
0.5 nM	7.2 nM			Cc1nc(N)nc2c1ccn2[C@@H]1S[C@H](CCc2ccc3cc(Br)c(N)nc3c2)[C@@H](O)[C@H]1O [Example 38, (2R,3S,4R,5R)-2-(2-(2-amino-3-bromoquinolin-7-yl)ethyl)-5-(2-amino-4-methyl-7H-pyrrolo[2,3-d]pyrimidin-7-yl)tetrahydrothiophene-3,4-diol]
1.3 nM	8.4 nM			Cc1ncnc2c1ccn2[C@@H]1S[C@@H](CCc2ccc3cc(Cl)c(N)nc3c2)[C@@H](O)[C@H]1O [Example 25, (2S,3S,4R,5R)-2-[2-(2-amino-3-chloroquinolin-7-yl)ethyl]-5-(4-methy1-7H-pyrrolo[2,3-d]pyrimidin-7-yl)tetrahydrothiophene-3,4-diol]
0.4 nM	0.6 nM			Cc1ncnc2c1ccn2[C@@H]1S[C@H](CCc2ccc3ccc(N)nc3c2)[C@@H](O)[C@H]1O [Example 17]
